PMC5428509, “Irreversible inhibition of BTK kinase by a novel highly selective inhibitor CHMFL-BTK-11 suppresses inflammatory response in rheumatoid arthritis model” (Scientific Reports, 2017)

How the values were obtained:
Assay in all cases: biochemical
Parameters in all cases: KinomeScan competition binding panel (DiscoveRx), percent of control at 1 uM
Settings in all cases: read-out: Percent Control
PIP5K1C = PIP5K1C (Homo sapiens, UniProt O60331)
From the text: (§1) In order to further confirm the binding mode, we then tested the compounds in the BTK wild-type (wt) and BTK C481S mutant with immunoblotting by looking at the BTK Y551 auto-phosphorylation. […] In addition, a covalent bond was preferred to form between the […] acrylamide and Cys-481 near the hinge binding area, which further confirmed its irreversible binding mode (Fig. 1d). We next investigated CHMFL-BTK-11′s selectivity profile in 456 kinases/mutants with KinomeScan^TM technology.

PLK1 = PLK1 (Homo sapiens, UniProt P53350)
Chain of PLK1 (P53350 whole entry): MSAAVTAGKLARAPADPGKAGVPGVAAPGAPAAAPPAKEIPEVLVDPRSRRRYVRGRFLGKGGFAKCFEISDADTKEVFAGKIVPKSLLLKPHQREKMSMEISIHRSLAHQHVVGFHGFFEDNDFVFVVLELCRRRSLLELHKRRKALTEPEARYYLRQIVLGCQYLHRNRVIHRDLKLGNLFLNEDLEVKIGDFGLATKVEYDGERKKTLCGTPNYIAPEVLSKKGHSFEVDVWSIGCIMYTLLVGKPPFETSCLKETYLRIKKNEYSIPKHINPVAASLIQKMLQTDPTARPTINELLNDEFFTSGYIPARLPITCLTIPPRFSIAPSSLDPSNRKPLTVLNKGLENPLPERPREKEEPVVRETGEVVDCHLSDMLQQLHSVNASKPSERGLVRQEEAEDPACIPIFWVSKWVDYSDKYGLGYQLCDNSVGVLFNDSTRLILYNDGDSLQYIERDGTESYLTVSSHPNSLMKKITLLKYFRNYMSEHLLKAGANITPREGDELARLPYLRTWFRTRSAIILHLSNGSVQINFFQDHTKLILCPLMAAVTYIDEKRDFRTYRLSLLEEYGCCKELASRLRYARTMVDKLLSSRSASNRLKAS
From the text: as §1

CDK3 = CDK3 (Homo sapiens, UniProt Q00526)
Chain of CDK3 (Q00526 whole entry): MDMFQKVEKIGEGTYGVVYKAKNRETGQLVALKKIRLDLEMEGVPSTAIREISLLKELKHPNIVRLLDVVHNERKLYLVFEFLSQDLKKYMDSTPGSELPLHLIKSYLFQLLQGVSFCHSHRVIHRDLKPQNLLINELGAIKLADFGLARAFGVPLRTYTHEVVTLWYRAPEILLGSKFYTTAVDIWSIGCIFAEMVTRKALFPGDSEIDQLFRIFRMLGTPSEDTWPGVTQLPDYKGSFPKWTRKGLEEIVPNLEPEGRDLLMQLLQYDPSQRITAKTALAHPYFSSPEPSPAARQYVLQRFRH
From the text: as §1

EGFR(T790M) = EGFR(T790M) (Homo sapiens, UniProt P00533, T790M)
Chain of EGFR(T790M) (P00533 whole entry T790M): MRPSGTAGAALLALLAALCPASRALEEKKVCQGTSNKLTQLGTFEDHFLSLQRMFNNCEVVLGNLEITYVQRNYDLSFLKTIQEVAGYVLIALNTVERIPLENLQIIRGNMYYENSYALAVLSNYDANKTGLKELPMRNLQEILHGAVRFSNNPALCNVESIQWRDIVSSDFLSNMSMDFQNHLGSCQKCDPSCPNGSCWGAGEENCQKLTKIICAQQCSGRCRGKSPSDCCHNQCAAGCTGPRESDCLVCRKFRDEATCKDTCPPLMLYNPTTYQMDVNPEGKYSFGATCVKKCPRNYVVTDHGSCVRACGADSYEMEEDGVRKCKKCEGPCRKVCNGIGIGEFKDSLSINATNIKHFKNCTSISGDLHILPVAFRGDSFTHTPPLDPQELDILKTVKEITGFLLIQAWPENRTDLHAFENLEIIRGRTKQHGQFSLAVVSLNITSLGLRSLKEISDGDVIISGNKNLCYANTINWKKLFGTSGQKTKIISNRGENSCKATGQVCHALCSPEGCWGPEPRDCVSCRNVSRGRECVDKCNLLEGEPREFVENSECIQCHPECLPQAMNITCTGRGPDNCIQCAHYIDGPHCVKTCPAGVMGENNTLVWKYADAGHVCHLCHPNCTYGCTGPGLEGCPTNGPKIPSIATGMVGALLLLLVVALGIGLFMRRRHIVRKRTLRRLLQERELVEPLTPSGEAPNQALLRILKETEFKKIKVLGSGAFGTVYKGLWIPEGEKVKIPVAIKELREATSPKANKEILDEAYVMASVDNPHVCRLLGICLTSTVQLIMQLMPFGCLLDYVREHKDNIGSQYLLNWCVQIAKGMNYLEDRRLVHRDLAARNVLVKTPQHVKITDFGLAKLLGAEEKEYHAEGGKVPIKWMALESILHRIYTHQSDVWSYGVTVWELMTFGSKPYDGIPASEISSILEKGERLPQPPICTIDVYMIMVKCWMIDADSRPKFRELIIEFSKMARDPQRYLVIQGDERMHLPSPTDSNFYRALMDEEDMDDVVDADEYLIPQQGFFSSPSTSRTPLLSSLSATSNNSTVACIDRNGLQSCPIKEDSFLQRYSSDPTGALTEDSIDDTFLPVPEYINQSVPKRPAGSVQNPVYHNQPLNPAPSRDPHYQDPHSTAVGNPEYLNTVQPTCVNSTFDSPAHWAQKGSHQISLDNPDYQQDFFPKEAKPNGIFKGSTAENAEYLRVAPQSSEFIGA
From the text: as §1

PRKCQ = PRKCQ (Homo sapiens, UniProt Q04759)
From the text: as §1

NEK6 = NEK6 (Homo sapiens, UniProt Q9HC98)
From the text: as §1

EPHA7 = EPHA7 (Homo sapiens, UniProt Q15375)
From the text: as §1

ARK5 = target: T1, ARK5 (Homo sapiens, UniProt O60285)
T1 construct: gene NUAK1
From the text: as §1

EGFR(G719C) = EGFR(G719C) (Homo sapiens, UniProt P00533, G719C)
From the text: as §1

PAK3 = PAK3 (Homo sapiens, UniProt O75914)
From the text: as §1

EGFR(S752-I759del) = EGFR(S752-I759del) (Homo sapiens, UniProt P00533, DEL752-759)
From the text: as §1

MAP4K5 = MAP4K5 (Homo sapiens, UniProt Q9Y4K4)
Chain of MAP4K5 (Q9Y4K4 whole entry): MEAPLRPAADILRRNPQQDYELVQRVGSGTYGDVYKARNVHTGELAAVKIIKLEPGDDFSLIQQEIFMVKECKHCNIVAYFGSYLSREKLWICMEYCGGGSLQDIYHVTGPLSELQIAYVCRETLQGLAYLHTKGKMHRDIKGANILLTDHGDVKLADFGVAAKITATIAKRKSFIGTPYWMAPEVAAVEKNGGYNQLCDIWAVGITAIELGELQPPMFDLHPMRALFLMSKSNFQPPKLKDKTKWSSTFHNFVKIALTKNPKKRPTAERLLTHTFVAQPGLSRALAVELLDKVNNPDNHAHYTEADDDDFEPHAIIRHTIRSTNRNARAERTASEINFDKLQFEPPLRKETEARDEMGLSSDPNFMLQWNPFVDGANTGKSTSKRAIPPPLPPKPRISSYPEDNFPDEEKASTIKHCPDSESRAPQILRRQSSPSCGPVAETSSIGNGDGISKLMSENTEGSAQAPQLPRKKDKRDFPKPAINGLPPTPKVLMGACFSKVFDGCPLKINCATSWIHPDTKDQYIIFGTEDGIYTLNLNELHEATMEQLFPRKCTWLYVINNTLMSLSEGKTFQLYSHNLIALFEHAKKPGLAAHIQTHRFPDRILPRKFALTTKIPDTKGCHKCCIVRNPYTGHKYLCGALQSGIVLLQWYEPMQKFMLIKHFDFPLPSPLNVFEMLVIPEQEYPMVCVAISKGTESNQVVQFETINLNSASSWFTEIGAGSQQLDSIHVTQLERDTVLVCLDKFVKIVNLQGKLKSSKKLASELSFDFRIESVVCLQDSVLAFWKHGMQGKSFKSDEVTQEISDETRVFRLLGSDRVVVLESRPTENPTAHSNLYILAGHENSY
From the text: as §1

KIT(V559D,T670I) = KIT(V559D,T670I) (Homo sapiens, UniProt P10721, T670I/V559D)
From the text: as §1

NDR1 = target: T2, NDR1 (Homo sapiens, UniProt Q15208)
T2 construct: gene STK38
From the text: as §1

AURKB = AURKB (Homo sapiens, UniProt Q96GD4)
From the text: as §1

SgK110 = target: T3, SgK110 (Homo sapiens, UniProt P0C264)
T3 construct: gene SBK3
From the text: as §1

CSNK1D = CSNK1D (Homo sapiens, UniProt P48730)
From the text: as §1

[1] = target: T4, ABL1(Q252H)-phosphorylated (Homo sapiens, UniProt P00519, Q252H)
T4 construct: phosphorylated
From the text: as §1

FLT3(D835H) = FLT3(D835H) (Homo sapiens, UniProt P36888, D835H)
From the text: as §1

DMPK2 = target: T5, DMPK2 (Homo sapiens, UniProt Q6DT37)
T5 construct: gene CDC42BPG
From the text: as §1

SRMS = SRMS (Homo sapiens, UniProt Q9H3Y6)
Chain of SRMS (Q9H3Y6 whole entry): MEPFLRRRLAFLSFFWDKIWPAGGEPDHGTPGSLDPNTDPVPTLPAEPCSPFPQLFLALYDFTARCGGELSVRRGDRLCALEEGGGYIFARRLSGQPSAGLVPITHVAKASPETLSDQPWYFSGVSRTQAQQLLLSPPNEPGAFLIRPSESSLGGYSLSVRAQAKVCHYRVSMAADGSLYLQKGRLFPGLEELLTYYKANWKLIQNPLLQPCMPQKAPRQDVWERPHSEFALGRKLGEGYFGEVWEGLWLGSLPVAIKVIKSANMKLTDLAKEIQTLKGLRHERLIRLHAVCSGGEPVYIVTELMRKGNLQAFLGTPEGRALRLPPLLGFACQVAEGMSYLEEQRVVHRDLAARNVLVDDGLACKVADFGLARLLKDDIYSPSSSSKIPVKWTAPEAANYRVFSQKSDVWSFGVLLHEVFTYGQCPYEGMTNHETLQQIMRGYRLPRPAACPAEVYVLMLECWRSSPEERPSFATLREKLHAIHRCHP
From the text: as §1

FGFR4 = FGFR4 (Homo sapiens, UniProt P22455)
From the text: as §1

GSK3B = GSK3B (Homo sapiens, UniProt P49841)
From the text: as §1

DYRK1B = DYRK1B (Homo sapiens, UniProt Q9Y463)
From the text: as §1

PRKG2 = PRKG2 (Homo sapiens, UniProt Q13237)
Chain of PRKG2 (Q13237 whole entry): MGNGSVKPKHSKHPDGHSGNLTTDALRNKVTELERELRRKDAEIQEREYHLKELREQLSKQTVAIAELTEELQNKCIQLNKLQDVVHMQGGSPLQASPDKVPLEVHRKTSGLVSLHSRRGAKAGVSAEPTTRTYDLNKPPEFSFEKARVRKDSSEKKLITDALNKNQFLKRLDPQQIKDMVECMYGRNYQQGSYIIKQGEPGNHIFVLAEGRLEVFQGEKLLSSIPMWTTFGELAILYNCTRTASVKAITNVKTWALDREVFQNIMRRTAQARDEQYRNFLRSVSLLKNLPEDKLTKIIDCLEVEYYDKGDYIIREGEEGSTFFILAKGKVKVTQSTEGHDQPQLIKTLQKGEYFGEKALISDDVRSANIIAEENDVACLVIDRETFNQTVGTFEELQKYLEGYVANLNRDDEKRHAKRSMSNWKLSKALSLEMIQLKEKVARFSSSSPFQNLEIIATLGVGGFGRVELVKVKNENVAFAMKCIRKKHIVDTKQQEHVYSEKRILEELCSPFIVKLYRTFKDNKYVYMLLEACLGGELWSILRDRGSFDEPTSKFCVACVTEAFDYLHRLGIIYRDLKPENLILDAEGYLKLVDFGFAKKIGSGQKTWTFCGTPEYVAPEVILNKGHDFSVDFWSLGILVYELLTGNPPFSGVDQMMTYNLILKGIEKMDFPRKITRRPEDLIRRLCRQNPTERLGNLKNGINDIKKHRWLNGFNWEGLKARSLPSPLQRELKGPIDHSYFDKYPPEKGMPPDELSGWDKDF
From the text: as §1

Chain of PIP5K1C (O60331 whole entry): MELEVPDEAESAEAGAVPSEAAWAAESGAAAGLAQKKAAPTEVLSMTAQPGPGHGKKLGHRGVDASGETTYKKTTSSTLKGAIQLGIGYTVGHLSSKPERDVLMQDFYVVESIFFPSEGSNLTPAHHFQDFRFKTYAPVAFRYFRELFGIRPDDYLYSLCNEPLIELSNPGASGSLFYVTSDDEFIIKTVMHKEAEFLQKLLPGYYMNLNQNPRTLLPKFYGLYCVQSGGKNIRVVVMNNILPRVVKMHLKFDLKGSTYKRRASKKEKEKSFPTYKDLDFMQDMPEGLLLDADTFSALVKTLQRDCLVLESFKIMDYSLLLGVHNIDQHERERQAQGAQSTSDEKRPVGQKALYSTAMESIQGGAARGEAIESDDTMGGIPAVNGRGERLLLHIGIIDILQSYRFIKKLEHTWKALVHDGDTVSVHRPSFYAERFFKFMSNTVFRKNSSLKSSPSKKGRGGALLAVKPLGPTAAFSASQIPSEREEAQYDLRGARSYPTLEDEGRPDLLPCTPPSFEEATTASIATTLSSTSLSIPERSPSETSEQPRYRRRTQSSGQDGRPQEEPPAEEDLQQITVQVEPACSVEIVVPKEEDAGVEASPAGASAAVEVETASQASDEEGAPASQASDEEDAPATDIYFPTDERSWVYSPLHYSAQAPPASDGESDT

With `C=CC(=O)Nc1cc(-n2c(=O)ccc3cnc4ccc(-n5cccn5)cc4c32)ccc1C` [CHMFL-BTK-11] the remaining binding at 1 µM (PIP5K1C) was 82%, the remaining binding at 1 µM (PLK1) was 99% and the remaining binding at 1 µM (CDK3) was 100%. It also gave a remaining binding at 1 µM (EGFR(T790M)) of 58%, a remaining binding at 1 µM (PRKCQ) of 100% and a remaining binding at 1 µM (NEK6) of 100%. For the same compound, the remaining binding at 1 µM (EPHA7) was 97%, the remaining binding at 1 µM (ARK5) was 100% and the remaining binding at 1 µM (EGFR(G719C)) was 97%. The remaining binding at 1 µM (PAK3) was 94%, the remaining binding at 1 µM (EGFR(S752-I759del)) was 58% and the remaining binding at 1 µM (MAP4K5) was 100%. For the same compound, the remaining binding at 1 µM (KIT(V559D,T670I)) was 99%, the remaining binding at 1 µM (NDR1) was 68% and the remaining binding at 1 µM (AURKB) was 94%. The remaining binding at 1 µM (SgK110) was 90%, the remaining binding at 1 µM (CSNK1D) was 100% and the remaining binding at 1 µM [1] was 100%. For the same compound, the remaining binding at 1 µM (FLT3(D835H)) was 100%, the remaining binding at 1 µM (DMPK2) was 99% and the remaining binding at 1 µM (SRMS) was 88%. It also gave a remaining binding at 1 µM (FGFR4) of 100%, a remaining binding at 1 µM (GSK3B) of 100% and a remaining binding at 1 µM (DYRK1B) of 65%. The remaining binding at 1 µM (PRKG2) was 98%.
